Data published in PMC4072025 (Cancer chemotherapy and pharmacology, 2013).
“Also recorded” adds a separate entry of the source.

Legend:
[1] = cited from earlier work
[2] = Part I dose escalation to define MTD and DLTs of lapatinib plus everolimus; format: in vivo, human; settings: once daily po
[3] = Steady-state everolimus PK in whole blood, alone and with lapatinib; format: in vivo, human; settings: for Everolimus Tmax % change: p=0.06; for Tmax: Everolimus Tmax, mean (95% CI)
[4] = Phase I/II trial of everolimus and imatinib; cited from earlier work
[5] = tested on: ER-positive breast cancer; settings: ER-positive patients with breast cancer; cited from earlier work
[6] = Steady-state lapatinib PK in plasma, alone and with everolimus
[7] = Day 19 with lapatinib vs Day 7 alone
[8] = Day 19 with everolimus vs Day 7 alone

C#Cc1cccc(Nc2ncnc3cc(OCCOC)c(OCCOC)cc23)c1 [erlotinib]
Pharmacokinetics of erlotinib with or without everolimus [1]: similar

CO[C@H]1C[C@@H]2CC[C@@H](C)[C@@](O)(O2)C(=O)C(=O)N2CCCC[C@H]2C(=O)O[C@H]([C@H](C)C[C@@H]2CC[C@@H](OCCO)[C@H](OC)C2)CC(=O)[C@H](C)/C=C(\C)[C@@H](O)[C@@H](OC)C(=O)[C@H](C)C[C@H](C)/C=C/C=C/C=C/1C [everolimus]
Maximum tolerated dose (MTD) of everolimus in the combination ([2]; combined with lapatinib 1250 mg): 5 mg
Everolimus AUC 0-inf % change [3, 7]: +26%
Everolimus Cmax % change [3, 7]: −5%
Everolimus Tmax % change [3, 7]: 44%
Everolimus Tmax % change ([3]; Day 19 with lapatinib vs Day 7 alone, listed as Everolimus): +44%
Mean everolimus CL/F at steady-state ([3]; alone): 19 (95% CI 14–24) L/hr
AUC ([3]; human, whole blood, oral, 5 mg): 348 ng·h/mL
AUC(0-inf) ([3]; human, whole blood, oral, 5 mg): 348 ng·h/mL
Cmax ([3]; human, whole blood, oral, 5 mg): 37 ng/mL
Tmax ([3]; human, whole blood, oral, 5 mg, Day 7, everolimus alone): 1.6 h
Tmax ([3]; human, whole blood, oral, Day 19, everolimus + lapatinib): 2.3 h
Mean everolimus CL/F at steady-state ([3]; in combination with lapatinib): 14 (95% CI 11–18) L/hr
Decrease of mean everolimus CL/F ([3]; in combination with lapatinib vs alone, p=0.08): 25%
PK differences when everolimus was given in combination with lapatinib ([3]; paired t-test): did not reach statistical significance
Increase of everolimus Cmax by imatinib [4]: 2.2 fold
Increase of everolimus mean AUC by imatinib [4]: 3.7 fold
Systemic exposure to everolimus, higher with erlotinib than without [1]: 17%

C=C1C[C@@H]2[C@H](CC[C@]3(C)C(=O)CC[C@@H]23)[C@@]2(C)C=CC(=O)C=C12 [exemestane]
Progression-free survival [5]: 2.8 months

CS(=O)(=O)CCNCc1ccc(-c2ccc3ncnc(Nc4ccc(OCc5cccc(F)c5)c(Cl)c4)c3c2)o1 [lapatinib]
Maximum tolerated dose (MTD) of lapatinib in the combination ([2]; combined with everolimus 5 mg): 1250 mg
Lapatinib Cmax ([6]; Day 19, lapatinib + everolimus, steady state, plasma, mean (95% CI)): 2520 (2020–3130) μg/L
Lapatinib AUC 0-inf % change [6, 8]: essentially unchanged
Lapatinib Cmax % change [6, 8]: +7%
Lapatinib Tmax % change [6, 8]: +33%
Lapatinib AUC 0-inf % change ([6]; Day 19 with everolimus vs Day 7 alone, listed as Lapatinib): +10%
Mean lapatinib Ctrough at steady-state ([6]; alone): 800 (95% CI 600–1120) μg/L
AUC ([6]; human, plasma, oral): 33900 ng·h/mL
AUC ([6]; human, plasma, oral, 1250 mg): 37400 ng·h/mL
AUC(0-inf) ([6]; human, plasma, oral, 1250 mg): 33900 ng·h/mL
Mean lapatinib Ctrough at steady-state ([6]; in combination with everolimus): 1060 (95% CI 760–1470) μg/L
Differences in steady-state lapatinib PK with or without everolimus co-administration ([6]; paired t-test): no significant influence; also recorded: not statistically significant
